The values that follow come from US11091482B2, “Isoxazolyl-carbonyloxy azabicyclo[3.2.1]octanyl compounds as FXR activators” (ARDELYX, INC., priority 2016, dated 2021).

Where two headings read alike, the source gives them in different places.

Data set [1] relates to fibroblast growth factor 19 (FGF19) secretion in human ileum. As to the kind of experiment: Human ileum APECCS (FGF19 secretion). The data set is classed as cell-based. The following applies: for EC50: Fibroblast; for Activity, %: relative to GW4064.
For data set [2], the target named is human Farnesoid X receptor ligand-binding domain/Gal4 DNA binding domain chimera (Homo sapiens (Human), UniProt Q96RI1). As to the kind of experiment: Cell-based FXR beta-lactamase reporter assay (FXR-UAS-bla HEK 293T cells). The following applies: for % Efficacy: extent of activation relative to GW4064; for Emax: HEK-293T, read-out: % Efficacy. In outline:
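Stable FXR-UAS-bla HEK 293T cells in phenol red-free DMEM with 2% charcoal-stripped FBS were exposed to 3-fold serial dilutions of compound. Beta-lactamase reporter activity was read by CCF4 FRET loss, exciting at 409 nm with blue emission at 447 nm. The FRET change versus concentration was fit to a 3-parameter logistic equation.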
A general note: A reporter such as luciferase makes a cellular process visible.

In data set [3] the test system is C57BL/6 male mice fed a Western diet. As to the kind of experiment: Western diet study. The data set is classed as in vivo, C57BL/6 mice. The procedure: (§1) Six-week-old C57BL/6 male mice were fed a Western diet (WD) (62% fat/0.2% cholesterol). […] An additional control group (lean) was fed a standard rodent chow throughout the study. Body weight measurements and serum samples (tail bleed) were taken weekly. After 6 weeks of treatment, all animals were sacrificed and hepatosteatosis-related endpoints and other liver markers were measured.
(§2) Total RNA from mouse tissues was isolated and used for library preparation.

A short description of the next data set: Western diet study. The data set is classed as in vivo, C57BL/6 mice. To be noted: male, C57BL/6, mouse, serum; 30 mg/kg q.d., after 2 weeks of treatment, 2 hours after the last dose; read-out: serum FXR agonist concentration. The procedure:
as §1, §2

A further data set deals with FXR target genes. As to the kind of experiment: Single-dose FXR target gene expression in mice fed a standard diet. In kind it is in vivo, C57BL/6 mice. The following applies: single dose 30 mg/kg.
Description: as §2

Data set [4] deals with ligand binding domain of human FXR (Homo sapiens (Human), UniProt Q96RI1). In words: FXR ligand binding assay (LanthaScreen FRET).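 For all read-outs here: TR-FRET coactivator recruitment: ligand-induced binding of fluorescein-labelled SRC2-2 peptide to GST-tagged FXR LBD detected via Tb anti-GST antibody, serial compound dilutions, 3-parameter logistic fit.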 On the set-up: Activity, %: concentration or dose not given beside the values. The following applies: for Emax: read-out: % Efficacy; for % Efficacy: extent of activation relative to GW4064.
Chain of ligand binding domain of human FXR (Q96RI1 262-486): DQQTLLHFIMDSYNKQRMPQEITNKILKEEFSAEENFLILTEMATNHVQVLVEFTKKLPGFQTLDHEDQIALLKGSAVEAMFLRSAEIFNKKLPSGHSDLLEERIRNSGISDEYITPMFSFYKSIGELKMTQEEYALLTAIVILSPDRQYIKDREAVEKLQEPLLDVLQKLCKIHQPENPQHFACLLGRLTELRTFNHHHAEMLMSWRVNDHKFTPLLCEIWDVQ
Where [5] appears, read: Western diet, 6 weeks of treatment.
Setting [6] is: Western diet, 6 weeks, I-2 30 mg/kg q.d. or b.i.d., Px-102 30 mg/kg q.d., FGF15-AAV single IV dose.
Setting [7] is: cellular FXR beta-lactamase reporter assay, -log EC50, read-out: FXR pEC50 (converted).
Setting [8] is: FXR ligand binding assay, -log EC50.
[9] abbreviates: cellular FXR beta-lactamase reporter assay, -log EC50.
Where [10] appears, read: cellular FXR beta-lactamase reporter assay.

Chain of human Farnesoid X receptor ligand-binding domain/Gal4 DNA binding domain chimera (Q96RI1 262-486, change not shown): as the sequence (Q96RI1 262-486) above

In the case of `CC[C@H]1[C@@H](O)[C@@H]2[C@H](CC[C@]3(C)[C@@H]([C@H](C)CCC(=O)O)CC[C@@H]23)[C@@]2(C)CC[C@@H](O)C[C@@H]12` [OCA, Obeticholic acid], in data set [1], the EC50 is 501 nM and the “Activity, %” value was 82.6 ± 19%.
In the case of `O=C(O)c1ccc([C@H]2C[C@@H]2c2ccc(OCc3c(-c4c(Cl)cccc4Cl)noc3C3CC3)cc2Cl)cc1` [Px-102], in data set [1], the EC50 is 331 nM and the “Activity, %” value amounted to 96.5 ± 25%. In data set [2] (Human FXR Cell (Gal4), relative to GW4064), the “Activity, %” value was 108%. Further, the EC50 in data set [2] (Human FXR Cell (Gal4), read-out: pEC50 (converted)) was 158 nM. Moreover, in data set [3] (setting [5]), the body weight result is on record as “did not affect” and the liver weight result is on record as “did not affect”. Besides, in data set [3] (setting [6]), the liver cholesterol entry was “normalized”, the liver triglycerides result is “normalized”, the macrovesicular steatosis result is “reduced” and the serum cholesterol entry is “reduced”. Moreover, the Cyp7a1 gene expression entry in data set [3] (liver, Western diet) is “downregulated”. Besides, the “serum FGF15 concentration” value in data set [3] (mice fed a WD) is listed as “further increased”. The concentration at 2 h in the data set “Western diet study” is 475 ng/mL. The “expression of selected FXR target genes in the liver” value with FXR target genes is reported as “activated”. The “expression of FXR target genes, including FGF15, in the ileum” value in the data set with FXR target genes (6 h after dosing) was “activated”. For the same compound, the “Activity, %” value in data set [4] (Human FXR Binding (FRET), relative to GW4064) was determined as 90 ± 15%. In data set [4] (Human FXR Binding (FRET), value ± spread, read-out: pEC50 (converted)), the EC50 was 10 nM.
On to `CC(C)c1onc(-c2c(Cl)cccc2Cl)c1COc1ccc(/C=C/c2cccc(C(=O)O)c2)c(Cl)c1` [GW4064], for which, in data set [1], the EC50 was 316 nM and the “Activity, %” value stood at 100 ± 0%.
For `O=C(OCC(=O)N(CCO)CCO)c1cc(F)c2nc(N3[C@@H]4CC[C@H]3C[C@@H](OC(=O)c3c(-c5c(Cl)cccc5Cl)noc3C3CC3)C4)sc2c1` [Compound I-64, [bis(2-hydroxyethyl)carbamoyl]methyl 2-[(1R,3R,5S)-3-[5-cyclopropyl-3-(2,6-dichlorophenyl)-1,2-oxazole-4-carbonyloxy]-8-azabicyclo[3.2.1]octan-8-yl]-4-fluoro-1,3-benzothiazole-6-carboxylate], the EC50 in data set [2] (setting [7]) is below 31.6 nM. In data set [4] (setting [8]), the “FXR pEC50” value amounted to 6.6. For the same compound, in data set [4], the Emax worked out at 32%.
On to `O=C(NS(=O)(=O)C1CC1)c1ccc(N2[C@@H]3CC[C@H]2C[C@H](OC(=O)c2c(-c4c(Cl)cccc4Cl)noc2C2CC2)C3)cc1` [Compound I-48, (1R,3S,5S)-8-{4-[(cyclopropanesulfonyl)carbamoyl]phenyl}-8-azabicyclo[3.2.1]octan-3-yl 5-cyclopropyl-3-(2,6-dichlorophenyl)-1,2-oxazole-4-carboxylate], for which the “FXR pEC50” value in data set [2] (setting [9]) is 8.6; in data set [4] (setting [8]) it was 8.2. The “% Efficacy” value was 130% in data set [2] (setting [10]) and 124% in data set [4] (FXR ligand binding assay).
Consider `O=C(OCCN(CCO)CCO)c1cc(F)c2nc(N3[C@@H]4CC[C@H]3C[C@@H](OC(=O)c3c(-c5c(Cl)cccc5Cl)noc3C3CC3)C4)sc2c1` [Compound I-63, 2-[bis(2-hydroxyethyl)amino]ethyl 2-[(1R,3R,5S)-3-[5-cyclopropyl-3-(2,6-dichlorophenyl)-1,2-oxazole-4-carbonyloxy]-8-azabicyclo[3.2.1]octan-8-yl]-4-fluoro-1,3-benzothiazole-6-carboxylate], for which the Emax in data set [2] was 112%. For the same compound, the EC50 in data set [2] (setting [7]) was 10000 nM. Also, the “FXR pEC50” value in data set [4] (setting [8]) is given as above 6.5.
In the case of `O=C(O[C@H]1C[C@H]2CC[C@@H](C1)N2c1ccc2c(C(=O)O)noc2c1)c1c(-c2c(Cl)cccc2Cl)noc1C1CC1` [Compound I-29, 6-[(1R,3R,5S)-3-[5-cyclopropyl-3-(2,6-dichlorophenyl)-1,2-oxazole-4-carbonyloxy]-8-azabicyclo[3.2.1]octan-8-yl]-1,2-benzoxazole-3-carboxylic Acid], the Emax in data set [2] was determined as 124%; in data set [4], 98%. Moreover, the EC50 in data set [2] (setting [7]) is 251 nM; in data set [4] (FXR ligand binding assay, -log EC50, read-out: FXR pEC50 (converted)) it was 316 nM.
Turning to `O=C(O)c1ccc(N2[C@@H]3CC[C@H]2C[C@@H](OC(=O)c2c(-c4c(Cl)cccc4Cl)noc2C2CC2)C3)c(Cl)c1` [Compound I-36, 3-chloro-4-[(1R,3R,5S)-3-[5-cyclopropyl-3-(2,6-dichlorophenyl)-1,2-oxazole-4-carbonyloxy]-8-azabicyclo[3.2.1]octan-8-yl]benzoic acid], the Emax is 99% in data set [2] and 106% in data set [4]. The EC50 in data set [2] (setting [7]) was 158 nM. Also, in data set [4] (setting [8]), the “FXR pEC50” value turned out to be 7.3.
Take `CCCS(=O)(=O)NC(=O)c1ccc(N2[C@@H]3CC[C@H]2C[C@@H](OC(=O)c2c(-c4c(Cl)cccc4Cl)noc2C2CC2)C3)cc1` [Compound I-45, (1R,3R,5S)-8-{4-[(propane-1-sulfonyl)carbamoyl]phenyl}-8-azabicyclo[3.2.1]octan-3-yl 5-cyclopropyl-3-(2,6-dichlorophenyl)-1,2-oxazole-4-carboxylate]: the “FXR pEC50” value in data set [2] (setting [9]) amounted to 8.6; in data set [4] (setting [8]) it was 8.3. In addition, in data set [4] (FXR ligand binding assay), the “% Efficacy” value came to 130%.
With `O=C(O)c1ncc(N2[C@@H]3CC[C@H]2C[C@@H](OC(=O)c2c(-c4c(Cl)cccc4Cl)noc2C2CC2)C3)cn1` [Compound I-54, 5-[(1R,3R,5S)-3-[5-Cyclopropyl-3-(2,6-dichlorophenyl)-1,2-oxazole-4-carbonyloxy]-8-azabicyclo[3.2.1]octan-8-yl]pyrimidine-2-carboxylic Acid], the Emax worked out at 115% in data set [2] and 46% in data set [4]. In data set [2] (setting [7]), the EC50 was above 20000 nM.
As to `O=C(O)c1cc(F)c2nc(N3[C@@H]4CC[C@H]3C[C@@H](OC(=O)c3c(C56CCC(CC5)CC6)noc3C3CC3)C4)sc2c1` [Compound I-20, 2-[(1R,3R,5S)-3-(3-{Bicyclo[2.2.2]octan-1-yl}-5-cyclopropyl-1,2-oxazole-4-carbonyloxy)-8-azabicyclo[3.2.1]octan-8-yl]-4-fluoro-1,3-benzothiazole-6-carboxylic Acid], the “FXR pEC50” value was 6.6 in data set [2] (setting [9]) and above 4.5 in data set [4] (setting [8]). Further, the “% Efficacy” value in data set [2] (setting [10]) stood at 22%.
On to `O=C(O)c1cc(F)c2nc(N3[C@@H]4CC[C@H]3C[C@@H](OC(=O)c3c(-c5ccccc5)noc3C3CC3)C4)sc2c1` [Compound I-13, 2-[(1R,3R,5S)-3-(5-Cyclopropyl-3-phenyl-1,2-oxazole-4-carbonyloxy)-8-azabicyclo[3.2.1]octan-8-yl]-4-fluoro-1,3-benzothiazole-6-carboxylic Acid], for which the “FXR pEC50” value in data set [2] (setting [9]) is 6; in data set [4] (setting [8]), 6.7. Further, the “% Efficacy” value in data set [2] (setting [10]) was determined as 93%; in data set [4] (FXR ligand binding assay), 40%.
For the compound `CCCS(=O)(=O)NC(=O)c1cc(F)c2nc(N3[C@@H]4CC[C@H]3C[C@@H](OC(=O)c3c(-c5c(Cl)cccc5Cl)noc3C3(F)CC3)C4)sc2c1` [Compound I-62, (1R,3R,5S)-8-{4-fluoro-6-[(propane-1-sulfonyl)carbamoyl]-1,3-benzothiazol-2-yl}-8-azabicyclo[3.2.1]octan-3-yl 3-(2,6-dichlorophenyl)-5-(1-fluorocyclopropyl)-1,2-oxazole-4-carboxylate], the Emax in data set [2] came to 107%; in data set [4], 145%. The EC50 in data set [2] (setting [7]) is 20 nM. The “FXR pEC50” value in data set [4] (setting [8]) was 7.4.
Consider `Cc1cc(C(=O)O)cc2sc(N3[C@@H]4CC[C@H]3C[C@@H](OC(=O)c3c(-c5c(Cl)cccc5Cl)noc3C3CC3)C4)nc12` [Compound I-11, 2-[(1R,3R,5S)-3-[5-Cyclopropyl-3-(2,6-dichlorophenyl)-1,2-oxazole-4-carbonyloxy]-8-azabicyclo[3.2.1]octan-8-yl]-4-methyl-1,3-benzothiazole-6-carboxylic Acid], for which the Emax in data set [2] was 121%; in data set [4], 110%. The EC50 in data set [2] (setting [7]) is 2.51 nM.
